Results on one molecule are retold here after EP4635958A1, “PYRIMIDINE-CONTAINING POLYCYCLIC DERIVATIVE INHIBITOR, AND PREPARATION METHOD THEREFOR AND USE THEREOF” (Shanghai Hansoh Biomedical Co., Ltd., priority 2022, dated 2024).

One assay has as its system p-ERK in AsPC-1 cells. The assay can be described thus: Inhibition of p-ERK in AsPC-1 cells (LANCE Ultra phospho-ERK1/2 kit). Particulars: Homo sapiens, ASPC1, 2 h with compound, read-out: AsPC-1_pERK IC50. Format: cell-based. The protocol: 1. Experimental objective: The inhibition activity of the example compounds on the phosphorylated ERK level in KRAS G12D mutant cells AsPC-1 was determined. 2. Experimental instruments: • 2.1 Instruments: Microplate reader (BioTek Synergy H1); Pipette (Eppendorf & Rainin) • 2.2 Reagents: Phosphorylated ERK1/2 (T202-Y204) LANCE Ultra Cellular Detection Kit was purchased from PerkinElmer, with a catalog number of TRF4000M; DMEM was purchased from Gibco, with a catalog number of 11995065; FBS was purchased from Gibco, with a catalog number of 10091148; PBS was purchased from Gibco, with a catalog number of 10010023; trypsin was purchased from Gibco, with a catalog number of 25200056; cell culture plates were purchased from Corning Company, with a catalog number of 3610; White opaque OptiPlate™-384 plates were purchased from PerkinElmer, with a catalog number of 6007290. 3. Experimental method: When AsPC-1 cells were cultured to appropriate confluence, the AsPC-1 cells were collected, and the cell density was adjusted to 1 × 10^6/mL using complete culture medium. […] The plate was read using BioTek Synergy H1 and the signal values at the emission wavelengths of 620 nm and 665 nm were detected using a time-resolved fluorescence program. […]
Background: TR-FRET usually uses a lanthanide donor and a delayed reading to cut background.

The next assay has as its target T1, KRAS G12D-SOS1 (Homo sapiens, UniProt P01116, G12D).
T1 construct: purchased Cisbio 63ADK000CB17PEG
As to the kind of experiment: Blocking of KRAS G12D-SOS1 protein binding (Cisbio KRAS-G12D/SOS1 Binding Assay Kit, time-resolved fluorescence). An excerpt:
• 1. Experimental objective: […] Experimental reagents and instruments The centrifuge (5810R) was purchased from Eppendorf; the pipette was purchased from Eppendorf or Rainin; and the microplate reader was purchased from BioTek (United States) with a model of SynergyH1 multifunctional microplate reader. KRAS-G12D/SOS1 Binding Assay Kit was purchased from Cisbio, with a catalog number of 63ADK000CB17PEG; GTP was purchased from Sigma, with a catalog number of G8877; 384-well plate was purchased from Perkin Elmer, with a catalog number of 6007299. The Diluent buffer in the kit was used to dilute the compound into 10× compound solution of different concentrations, and 2 uL was added to each well of the 384-well plate. Tag2-KRAS G12D protein and GTP were formulated into a mixed solution of 5×KRAS G12D-GTP protein using Diluent buffer, and Tag1-SOS1 protein was formulated into a 5×SOS1 protein solution using Diluent buffer. Each solution was added to the 384-well plate separately at 4 uL per well, and incubated at room temperature for 15 min. A mixed solution of 2× anti-Tag1-Tb^3+ and anti-Tag2-XL665 formulated using detection buffer was added to the 384-well plate at 10 µL per well, and incubated at 4°C in the dark for 3 h.

T1 sequence (P01116 1-188 isoform P01116-2 G12D): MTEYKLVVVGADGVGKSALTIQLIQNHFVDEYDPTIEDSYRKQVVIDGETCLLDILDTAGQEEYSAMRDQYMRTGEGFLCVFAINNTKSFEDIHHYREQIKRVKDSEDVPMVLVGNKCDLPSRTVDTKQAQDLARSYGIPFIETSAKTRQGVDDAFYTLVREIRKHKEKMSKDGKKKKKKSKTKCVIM

A word on the IC50: it is the midpoint of a concentration-inhibition curve. Take `C#Cc1c(F)ccc2cc(O)cc(-c3nc4c5c(nc(OCC6(CN7CCC(=C(F)F)CC7)CC6)nc5c3F)N3C[C@H]5CC[C@H](N5)[C@H]3CO4)c12` [Example 1-1, 4-((5aS,6S,9R)-12-((1-((4-(difluoromethylene)piperidin-1-yl)methyl)cyclopropyl)methoxy)-1-fluoro-5a,6,7,8,9,10-hexahydro-5H-4-oxa-3,10a,11,13,14-pentaaza-6,9-methylenenaphtho[1,8-ab]heptalene-2-yl)-5-ethynyl-6-fluoronaphthalen-2-ol]: the IC50 was 1 nM in the assay with p-ERK in AsPC-1 cells and 1.8 nM on KRAS G12D-SOS1.
